Literature values, collected in patent US20080146639A1, “Pharmaceutical Combination of Angiotensin II Antagonists and Angiotensin I Converting Enzyme Inhibitors” (Boehringer Ingelheim Pharma GmbH & Co Kg., priority 2000, published 2008).

Conditions: treatment with ACE inhibitor ramipril; HOPE study (New Engl. J. Med., Jan. 20, 2000)

For `CCOC(=O)[C@H](CCc1ccccc1)N[C@@H](C)C(=O)N1[C@H](C(=O)O)C[C@@H]2CCC[C@@H]21` [ramipril], the “reduction of the risk of the combined primary cardiovascular outcome” value is listed as 22%.
